Results on one compound are retold here after US7235548B2, “Compounds and their use as positive AMPA receptor modulators” (NeuroSearch A/S, priority 1998, dated 2007).

This experiment has as its system NMRI mice. The experiment is described as follows: Passive avoidance (associative memory). It counts as in vivo, mouse. Particulars: mice pre-treated before training, test after 24 hours; different concentrations; FIG. 17. On the procedure: PURPOSE: To test the pharmacological effect of compounds on associative memory.
PRINCIPLE: A Mouse is placed in a light compartment with access to a dark compartment. If it enter the dark compartment it will receive a foot-shock (0.4 mA). After a delay (24 hours) the association to risk an unpleasant foot-shock by re-entering the dark compartment is tested.
ANIMALS: Female NMRI mice (Bomholdtgaard, DK) weighing 22–25 g were used. The mice were kept in Macrolon plastic cages with free access to food (Altromin, DK) and tap water. The mice were habituated to the laboratory for at least 3 days before testing (light on 7:00am/light off 7:00 pm).
EQUIPMENT: The passive avoidance apparatus consisted of a modular test chambers (ENV-307, MED-Associates, US). The light and the dark compartment consisted of plexiglas boxes of equal size (15×17×13 cm; width×length×height) with metal grid floors. A sliding guillotine door was located at the aperture (4×4 cm) connecting the two compartments. […]
[…]: Entry latency (sec) to re-enter the dark compartment was measured. […]
Training: One mouse is placed in the light compartment and the guillotine door to the dark compartment is opened. […] Test: After a delay (24 hours) the mouse will re-enter the light compartment and time latency to enter the dark compartment is measured with a time limit at 2 minutes. […]

Consider `CN1CCN(S(=O)(=O)c2ccc3c(c2)S(=O)(=O)NC(C2CCCCC2)N3)CC1` (stereo not shown) [Compound 61, 3-Cyclohexyl-7-(4′-methylpiperazino)sulfonyl-1,2,3,4-tetrahydro-1,2,4-benzothiadiazine-1,1-dioxide], for which the “entry latency to re-enter the dark compartment (memory)” value is on record as “memory enhancing effect”.
